Laboratory results published in US11013722B2, “Therapeutic agent for dyslipidemia” (KOWA COMPANY, LTD., priority 2012, dated 2021).

Columns and labels:
[1] = tested on: High-Cholesterol Diet-Fed Rats; assay: Example 1: combined effect of compound A and ezetimibe, plasma HDL-C; format: in vivo, SD rats; settings: for HDL-C Ave.: plasma, oral once a day, one week; for HDL-C Rate of Change: vs control
Protocol: The synergistic effect was determined by using Burgi's formula (if the relative level in the combined group is larger than the value of the product of the relative level of single agent A and the relative level of single agent B, the synergistic effect is positive).
(§1) Group 2: Compound A 0.1 mg/kg
Group 3: Ezetimibe 0.003 mg/kg
Group 4: Compound A 0.1 mg/kg and ezetimibe 0.003 mg/kg
(§2) The results were shown as the mean±standard deviation.

[2] = tested on: High-Cholesterol Diet-Fed Rats; assay: Example 2: combined effect of compound A and ezetimibe, plasma TC and lipoprotein cholesterol; format: in vivo, SD rats
Protocol: The synergistic effect was determined by using Burgi's formula (in a case where a level lower than that in the control group is indicated in a drug administration group, that is, when the evaluation of an agent to the TC, VLDL-C, or LDL-C is performed, if the relative level in the combined group is smaller than the value of the product of the relative level of single agent A and the relative level of single agent B, the synergistic effect exists. In a case where a level higher than that in the control group is indicated in a drug administration group, that is, when the evaluation of an agent to the HDL-C is performed, if the relative level in the combined group is larger than the value of the product of the relative level of single agent A and the relative level of single agent B, the synergistic effect exists).
as §1
Group 3: Ezetimibe 0.01 mg/kg […]
Group 5: Ezetimibe 0.1 mg/kg […]
as §2

## CC[C@@H](Oc1cccc(CN(CCCOc2ccc(OC)cc2)c2nc3ccccc3o2)c1)C(=O)O [Compound A, (R)-2-[3-[[N-(benzoxazol-2-yl)-N-3-(4-methoxyphenoxy)propyl]aminomethyl]phenoxy]butyric acid]
[1]; Compound A 0.1 mg/kg alone
  Effect on HDL-C level: apparent effects were not recognized
  HDL-C relative level to the control group: 1.010
  HDL-C Ave.: 24.3
  HDL-C Rate of Change: 1.0%
[2]; Compound A 0.1 mg/kg alone
  HDL-C Relative Level (to Control): 1.021
  LDL-C Relative Level (to Control): 0.971
  TC Relative Level (to Control): 0.956
  VLDL-C Relative Level (to Control): 0.827

## O=C1[C@H](CC[C@H](O)c2ccc(F)cc2)[C@@H](c2ccc(O)cc2)N1c1ccc(F)cc1 [Ezetimibe, (3R,4S)-1-(4-fluorophenyl)-3-{(3S)-3-(4-fluorophenyl)-3-hydroxypropyl}-4-(4-hydroxyphenyl)azetidin-2-one]
[1]; Ezetimibe 0.003 mg/kg alone
  Effect on HDL-C level: apparent effects were not recognized
  HDL-C relative level to the control group: 1.022
  HDL-C Ave.: 24.6
  HDL-C Rate of Change: 2.2%
[2]; Ezetimibe 0.01 mg/kg alone
  HDL-C Relative Level (to Control): 0.910
  LDL-C Relative Level (to Control): 0.955
  TC Relative Level (to Control): 0.898
  VLDL-C Relative Level (to Control): 0.719
[2]; Ezetimibe 0.1 mg/kg alone
  HDL-C Relative Level (to Control): 1.100
  LDL-C Relative Level (to Control): 0.720
  TC Relative Level (to Control): 0.555
  VLDL-C Relative Level (to Control): 0.262
